A short description of series [1]: Cytotoxicity against human PM1 cells harboring CCR5 co-receptor by WST-8 assay. Type of series: cell-based. (Formazan colour is commonly taken as a measure of viable cells.)
Series [2] addresses Envelope glycoprotein gp160 (Human immunodeficiency virus 1) (UniProt Q6QLK5). Description: Induction of conformational changes in HIV1 cYTA48P envelope glycoprotein gp120 infected in PM1/CCR5 cells assessed as mean fluorescence intensity using CD4i monoclonal antibody 4C11 at 100 uM after 15 mins by FACS analysis relative to NBD-556. It counts as cell-based. A general note: A flow cytometer gives signals particle by particle.

Series [3] has as its system Human immunodeficiency virus 1. Description: Antiviral activity against HIV1 cYTA48P infected in PM1/CCR5 cells by single round assay. It counts as functional, organism-based. The note with it: Human immunodeficiency virus 1, cYTA48P.
The target in series [4] is Envelope glycoprotein gp160 (Human immunodeficiency virus 1) (UniProt Q6QLK5). Description: Induction of conformational changes in HIV1 cYTA48P envelope glycoprotein gp120 infected in PM1/CCR5 cells assessed as mean fluorescence intensity using CD4i monoclonal antibody 4C11 at 100 uM after 15 mins by FACS analysis. Type of series: cell-based.
In series [5] the test system is Human immunodeficiency virus 1. Description: Antiviral activity against HIV1 cYTA48P infected in PM1/CCR5 cells at 10 uM by single round assay. Type of series: functional.

Some results are limits rather than exact numbers.

Envelope glycoprotein gp160 (Human immunodeficiency virus 1), sequence (Q6QLK5 1-814): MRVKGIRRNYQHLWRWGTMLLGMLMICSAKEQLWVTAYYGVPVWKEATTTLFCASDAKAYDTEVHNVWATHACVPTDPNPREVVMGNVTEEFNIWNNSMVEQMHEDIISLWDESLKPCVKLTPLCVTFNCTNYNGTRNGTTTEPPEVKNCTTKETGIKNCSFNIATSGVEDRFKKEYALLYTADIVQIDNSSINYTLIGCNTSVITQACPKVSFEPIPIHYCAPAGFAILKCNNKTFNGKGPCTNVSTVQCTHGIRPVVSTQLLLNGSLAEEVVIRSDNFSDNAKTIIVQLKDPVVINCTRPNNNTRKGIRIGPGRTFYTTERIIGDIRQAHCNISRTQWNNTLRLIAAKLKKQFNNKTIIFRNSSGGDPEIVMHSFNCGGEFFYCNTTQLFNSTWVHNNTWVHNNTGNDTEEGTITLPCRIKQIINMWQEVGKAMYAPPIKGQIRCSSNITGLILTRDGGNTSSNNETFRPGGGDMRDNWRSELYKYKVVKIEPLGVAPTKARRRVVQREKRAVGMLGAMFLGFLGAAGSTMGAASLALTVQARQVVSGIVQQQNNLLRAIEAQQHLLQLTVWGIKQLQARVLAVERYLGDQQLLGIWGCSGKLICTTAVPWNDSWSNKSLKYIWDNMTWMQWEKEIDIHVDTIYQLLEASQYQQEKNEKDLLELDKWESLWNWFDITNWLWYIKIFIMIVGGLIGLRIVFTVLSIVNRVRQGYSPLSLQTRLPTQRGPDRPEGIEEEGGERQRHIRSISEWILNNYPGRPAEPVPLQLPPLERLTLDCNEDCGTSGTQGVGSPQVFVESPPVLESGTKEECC

The term CC50 denotes the concentration giving 50% cytotoxicity. Usually IC50 stands for the midpoint of a concentration-inhibition curve. Higher therefore signals a need for much substance. `CCOC(=O)C1CCN(C(=O)c2cc3c(C)cc(C)cc3n2C)CC1`: the CC50 in series [1] was greater than 50.2 µM. In addition, the fold change (FC) in series [2] is 0.3. For the same molecule, the IC50 in series [3] was greater than 100 µM. Moreover, the Flu intensity in series [4] was 8.11.

Molecule `O=C(NC1CC2(CCCCC2)NC2(CCCCC2)C1)c1cc2cc3c(cc2[nH]1)OCO3` (centres undefined) displayed a CC50 in series [1] greater than 100 µM. Moreover, the fold change (FC) in series [2] stood at 0.36. The same molecule showed an IC50 in series [3] of 1 µM. The Flu intensity in series [4] is 36.4.

`CC1(C)CC(NC(=O)C(=O)Nc2ccc(Cl)cc2)CC(C)(C)N1` came in with a CC50 in series [1] of 70.4 µM. This molecule also registered an IC50 in series [3] of 0.63 µM. Also, the Flu intensity in series [4] is 8.91.

`O=C(CNc1ccc2c(c1)OCO2)NC1CC2(CCCCC2)NC2(CCCCC2)C1` (centres undefined): in series [2], the fold change (FC) was 0.19. In addition, the IC50 in series [3] stood at 10.8 µM. Further, the Flu intensity in series [4] stood at 28.7.

Molecule `O=C(NC1CC2(CCCCC2)NC2(CCCCC2)C1)c1cc2ccc(Cl)cc2[nH]1` (centres undefined) gave a CC50 in series [1] of 10.7 µM. In series [5], this molecule yielded an Activity of 11%. Further, in series [3], the IC50 was greater than 100 µM.

`Cn1c(C(=O)NC2CC3(CCCCC3)NC3(CCCCC3)C2)cc2cc(F)c(Cl)cc21` (centres undefined) returned a CC50 in series [1] of 29.4 µM. This molecule also yielded an IC50 in series [3] greater than 100 µM.

`CCOC(=O)C1CCN(C(=O)CNc2ccc3c(c2)OCO3)CC1` registered an IC50 in series [3] greater than 100 µM. For the same molecule, the Flu intensity in series [4] amounted to 18.5.

Regarding `Cn1c(C(=O)NC2CC(C)(C)NC(C)(C)C2)cc2c(F)c(Cl)ccc21`, it took 13.9 µM to reach half-maximal cytotoxicity in series [1] (CC50). In series [5], this molecule showed an Activity of 32%. The IC50 in series [3] is greater than 100 µM. In addition, in series [4], the Flu intensity was determined as 6.74.

For the molecule `Cc1cc(C)c2cc(C(=O)NC3CC4(CCCCC4)NC4(CCCCC4)C3)n(C)c2c1` (centres undefined), the CC50 in series [1] was greater than 13.5 µM. Besides, the fold change (FC) in series [2] is 0.17. The IC50 in series [3] is greater than 100 µM. The Flu intensity in series [4] came out at 7.96.

For the molecule `CCOC(=O)C1CCN(C(=O)c2cc3c(C)cc(C)cc3[nH]2)CC1`, the CC50 in series [1] is greater than 200 µM. For the same molecule, the fold change (FC) in series [2] amounted to 0.33. Further, the IC50 in series [3] is greater than 100 µM. In series [4], the Flu intensity is 8.14.

In the case of `CC1(C)CC(NC(=O)c2cc3cc(F)c(Cl)cc3[nH]2)CC(C)(C)N1`, the CC50 in series [1] was determined as 103 µM. Further, in series [3], it took 88.7 µM to reach half-maximal inhibition (IC50).

For the molecule `CC1(C)CC(NC(=O)c2cc3cc(Cl)ccc3[nH]2)CC(C)(C)N1`, the CC50 in series [1] was determined as 48.6 µM. The fold change (FC) in series [2] worked out at 0.82. For the same molecule, in series [3], the IC50 was 3.65 µM. In addition, in series [4], the Flu intensity turned out to be 8.7.

The molecule `Cn1c(C(=O)NC2CC3(CCCCC3)NC3(CCCCC3)C2)cc2ccc(Cl)cc21` (centres undefined) came in with a CC50 in series [1] of 33.9 µM. In series [3], this molecule came in with an IC50 greater than 100 µM.

On to `Cc1cc(C)c2cc(C(=O)NC3CC(C)(C)NC(C)(C)C3)n(C)c2c1`, for which the CC50 in series [1] is greater than 37.5 µM. The IC50 in series [3] is greater than 100 µM. In series [4], the Flu intensity came out at 7.61.

With `CCOC(=O)C1CCN(C(=O)CNc2ccc(Cl)cc2)CC1`, in series [2], the fold change (FC) stood at 0.081. In series [3], this molecule yielded an IC50 greater than 100 µM. Also, the Flu intensity in series [4] was determined as 23.8.

Regarding `O=C(CNc1ccc(Cl)cc1)NC1CC2(CCCCC2)NC2(CCCCC2)C1` (centres undefined), in series [1], the CC50 is greater than 100 µM. In addition, the IC50 in series [3] was determined as 2.2 µM. Moreover, the Flu intensity in series [4] was found to be 19.6.

In turn, `CC1(C)CC(NC(=O)c2cc3c(F)c(Cl)ccc3[nH]2)CC(C)(C)N1` showed a CC50 in series [1] of 19.4 µM. For the same molecule, the fold change (FC) in series [2] is 0.68. Besides, in series [5], the Activity is reported as 32%. Besides, in series [3], the IC50 was greater than 10 µM. Besides, in series [4], the Flu intensity turned out to be 8.55.

In the case of `Cc1cc(C)c2cc(C(=O)NC3CC(C)(C)NC(C)(C)C3)[nH]c2c1`, the CC50 in series [1] was determined as 60.3 µM. Moreover, the fold change (FC) in series [2] is 0.28. In addition, the IC50 in series [3] was greater than 100 µM. Moreover, in series [4], the Flu intensity amounted to 8.08.

`CC1(C)CC(NC(=O)c2cc3ccc(Cl)cc3[nH]2)CC(C)(C)N1` had a CC50 in series [1] of 37.4 µM. In series [3], this molecule yielded an IC50 greater than 100 µM.

`O=C(NC1CC2(CCCCC2)NC2(CCCCC2)C1)c1cc2cc(F)c(Cl)cc2[nH]1` (centres undefined) showed a CC50 in series [1] of 11.3 µM. Besides, the IC50 in series [3] was greater than 100 µM.

In series [1], `CCOC(=O)C1CCN(C(=O)c2cc3c(F)c(Cl)ccc3[nH]2)CC1` displayed a CC50 greater than 200 µM. Besides, in series [2], the fold change (FC) turned out to be 0.42. The IC50 in series [3] was greater than 100 µM. Besides, the Flu intensity in series [4] was 8.24.

For `Cn1c(C(=O)NC2CC(C)(C)NC(C)(C)C2)cc2cc(Cl)ccc21`, in series [1], the CC50 came to 37.5 µM. This molecule also yielded an IC50 in series [3] greater than 100 µM. Besides, the Flu intensity in series [4] is 6.65.

As for `CC1(C)CC(NC(=O)c2cc3cc4c(cc3[nH]2)OCO4)CC(C)(C)N1`, the fold change (FC) in series [2] came out at 0.23. It took 23 µM to reach half-maximal inhibition in series [3] (IC50). Further, the Flu intensity in series [4] was determined as 30.7.

Turning to `CC1(C)CC(NC(=O)CNc2ccc3c(c2)OCO3)CC(C)(C)N1`, the fold change (FC) in series [2] is 0.073. Moreover, the IC50 in series [3] is greater than 30 µM. For the same molecule, the Flu intensity in series [4] is 23.4.

Turning to `CC1(C)CC(NC(=O)CNc2ccc(Cl)cc2)CC(C)(C)N1`, the fold change (FC) in series [2] worked out at 0.22. This molecule also came in with an IC50 in series [3] of 36.9 µM. Besides, the Flu intensity in series [4] was found to be 30.2.

In series [1], `O=C(NC1CC2(CCCCC2)NC2(CCCCC2)C1)c1cc2c(F)c(Cl)ccc2[nH]1` (centres undefined) returned a cytotoxic concentration (CC50) of 11.4 µM. In addition, the fold change (FC) in series [2] is 0.25. The molecule also came in with an IC50 in series [3] of 3.6 µM. Further, the Flu intensity in series [4] was 8.05.

For `Cc1cc(C)c2cc(C(=O)NC3CC4(CCCCC4)NC4(CCCCC4)C3)[nH]c2c1` (centres undefined), the CC50 in series [1] is 9.6 µM. For the same molecule, the IC50 in series [3] was greater than 100 µM. For the same molecule, the Flu intensity in series [4] came to 5.27.

`CCOC(=O)C1CCN(C(=O)c2cc3ccc(Cl)cc3n2C)CC1` displayed a CC50 in series [1] of 78.4 µM. Besides, in series [3], the IC50 was greater than 100 µM.

As for `CCOC(=O)C1CCN(C(=O)c2cc3cc4c(cc3[nH]2)OCO4)CC1`, the fold change (FC) in series [2] worked out at 0.13. The molecule also came in with an IC50 in series [3] of 63 µM. Further, the Flu intensity in series [4] came out at 26.2.

The molecule `Cn1c(C(=O)NC2CC(C)(C)NC(C)(C)C2)cc2ccc(Cl)cc21` came in with a CC50 in series [1] of 33.2 µM. The Activity in series [5] is recorded as 27%. The same molecule gave an IC50 in series [3] greater than 100 µM.

With `CCOC(=O)C1CCN(C(=O)c2cc3c(F)c(Cl)ccc3n2C)CC1`, the CC50 in series [1] was greater than 63.5 µM. The fold change (FC) in series [2] came out at 0.76. The IC50 in series [3] was greater than 100 µM. Moreover, in series [4], the Flu intensity amounted to 8.63.

In the case of `CCOC(=O)C1CCN(C(=O)c2cc3cc(F)c(Cl)cc3[nH]2)CC1`, in series [1], the CC50 is 121 µM. The IC50 in series [3] was greater than 100 µM.

On to `CCOC(=O)C1CCN(C(=O)c2cc3ccc(Cl)cc3[nH]2)CC1`, for which the CC50 in series [1] came out at 52.6 µM. The molecule also returned an IC50 in series [3] greater than 100 µM.

In series [1], `Cn1c(C(=O)NC2CC3(CCCCC3)NC3(CCCCC3)C2)cc2c(F)c(Cl)ccc21` (centres undefined) yielded a CC50 of 12.3 µM. In series [3], the IC50 was greater than 100 µM. Moreover, in series [4], the Flu intensity stood at 6.45.

Regarding `Cn1c(C(=O)NC2CC(C)(C)NC(C)(C)C2)cc2cc(F)c(Cl)cc21`, the CC50 in series [1] is 18.7 µM. Also, the concentration for half-maximal inhibition (IC50) in series [3] was greater than 100 µM.

In series [1], `CCOC(=O)C1CCN(C(=O)c2cc3cc(F)c(Cl)cc3n2C)CC1` returned a CC50 of 41.1 µM. In addition, the IC50 in series [3] is greater than 100 µM.

These data come from ChEMBL document CHEMBL4261625, “Flexibility of small molecular CD4 mimics as HIV entry inhibitors” (Bioorg Med Chem, 2018).
